Results on 7 compounds are retold here after EP0326331B1, “Substituted quinolines and cinnolines” (Dow AgroSciences LLC, priority 1988, dated 1989).

Holding throughout (type): in vivo
In experiment [1] the test system is Cercospora beticola (leaf spot). Briefly: Test 1 greenhouse foliar spray screen, leaf spot on sugar beet. The conditions noted are these: disease control rating, foliar spray on sugar beet, 400 ppm (+++ at 100 ppm).
Experiment [2] concerns Pyricularia oryzae (rice blast). Briefly: whole plant or invertebrate. The conditions noted are these: disease control rating, foliar spray on rice, 400 ppm (+++ at 100 ppm).
Experiment [3] relates to Septoria tritici (leaf blotch). Nature of the experiment: Test 1 greenhouse foliar spray screen, leaf blotch on wheat. Particulars: disease control rating, foliar spray on wheat, 400 ppm (+++ at 100 ppm).
For experiment [4], the system named is melon aphids (Aphis gossypii Glover). Briefly: Mite/insect screen, MA. Particulars: Aphis gossypii, percent mortality, SAW, read-out: MA RESULTS %; for mortality at 200 ppm: SM & MA RATE 200 PPM; for mortality at 400 ppm: SM & MA RATE 400 PPM. Put shortly: (§1)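 First, each compound was dissolved in an emulsifier-containing acetone/alcohol mixture and diluted with water. Next, leaves were sprayed until runoff and left to dry for an hour. For southern armyworm, two excised uninfested leaves went into a Petri dish with larvae; percent mortality followed standard exposure periods.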

Experiment [5] deals with Pseudoperonospora cubensis (downy mildew). Nature of the experiment: Test 1 greenhouse foliar spray screen, downy mildew on squash. The conditions noted are these: disease control rating, foliar spray on squash, 400 ppm (+++ at 100 ppm).
Experiment [6] relates to Venturia inaequalis (apple scab). Nature of the experiment: Test 1 greenhouse foliar spray screen, apple scab on apple seedling. The conditions noted are these: disease control rating, foliar spray on apple seedling, 400 ppm (+++ at 100 ppm).
For experiment [7], the system named is Twospotted spider mites (Tetranychus urticae Koch). Nature of the experiment: Mite/insect screen, SM. The conditions noted are these: Tetranychus urticae, percent mortality, SAW, read-out: SM RESULTS %; for mortality at 200 ppm: SM & MA RATE 200 PPM; for mortality at 400 ppm: SM & MA RATE 400 PPM. Put shortly:
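Read-out: percent mortality after standard exposure periods. Test solutions were water dilutions of compound dissolved in acetone/alcohol (50:50) with emulsifier blends; leaves were sprayed to runoff on both surfaces and air-dried for one hour before exposure.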

For experiment [8], the system named is corn rootworm. Nature of the experiment: Mite/insect screen, CRW. Particulars: percent mortality, read-out: CRW RESULTS %; for mortality at 12 ppm: CRW RATE 12.00 PPM; for mortality at 24 ppm: CRW RATE 24.00 PPM. Put shortly:
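Stock in acetone:alcohol 1:1 + TOXIMUL R 23 g/L + TOXIMUL S 13 g/L; diluted with water to indicated concentrations; mortality (%) after standard exposure.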

In experiment [9] the test system is Erysiphe graminis tritici (powdery mildew). Nature of the experiment: Test 1 greenhouse foliar spray screen, powdery mildew on wheat. Particulars: disease control rating, foliar spray on wheat, 400 ppm (+++ at 100 ppm).
In experiment [10] the test system is Puccinia recondita tritici (leaf rust). Nature of the experiment: Test 1 greenhouse foliar spray screen, leaf rust on wheat. The conditions noted are these: disease control rating, foliar spray on wheat, 400 ppm (+++ at 100 ppm).
The subject of experiment [11] is Botrytis cinerea (gray mold). Nature of the experiment: Test 1 greenhouse foliar spray screen, gray mold on grape berries. Particulars: disease control rating, spray on grape berries, 400 ppm (+++ at 100 ppm).
Experiment [12] concerns southern armyworm (Spodopetra eridania Cramer). Nature of the experiment: Mite/insect screen, SAW. Particulars: Spodoptera eridania, percent mortality, SAW, read-out: SAW RESULTS %; for mortality at 200 ppm: SM & MA RATE 200 PPM; for mortality at 400 ppm: SM & MA RATE 400 PPM. An outline of the steps:
as §1

For `COc1cccc(CCNc2ccnc3cc(Cl)ccc23)c1` [Example 43, 7-chloro-N-[2-(3-methoxyphenyl)ethyl]-4-quinolinamine], the “LEAF SPOT” value in [1] is recorded as “+++ (90-100% control at 100 ppm)”. In addition, in experiment [2], the “RICE BLAST” value is reported as “+ (20-89% control at 400 ppm)”. For the same compound, the “LEAF BLOT” value in experiment [3] is listed as “- (0-19% control at 400 ppm)”. In [4], the mortality at 200 ppm amounted to 0% and the mortality at 400 ppm was determined as 0%. The “DOWN MDEW” value in experiment [5] is “++ (90-100% control at 400 ppm)”. Besides, the “APPL SCAB” value in [6] is “- (0-19% control at 400 ppm)”. Besides, in experiment [7], the mortality at 200 ppm amounted to 0% and the mortality at 400 ppm turned out to be 0%. Moreover, in experiment [8], the mortality at 12 ppm turned out to be 0% and the mortality at 24 ppm was 0%. Also, the “POWD MDEW” value in [9] is given as “+ (20-89% control at 400 ppm)”. Also, in experiment [10], the “LEAF RUST” value is “- (0-19% control at 400 ppm)”. In [11], the “GRAY MOLD” value is on record as “- (0-19% control at 400 ppm)”. In experiment [12], the mortality at 200 ppm turned out to be 0% and the mortality at 400 ppm was determined as 0%.
In the case of `Clc1ccc(CCNc2ccnc3cc(Cl)ccc23)c(Cl)c1` [Example 44, 7-chloro-N-[2-(2,4-dichlorophenyl)ethyl]-4-quinolinamine], the “LEAF SPOT” value in experiment [1] was “+++ (90-100% control at 100 ppm)”. Further, the “RICE BLAST” value in [2] is on record as “+ (20-89% control at 400 ppm)”. In addition, the “LEAF BLOT” value in experiment [3] is reported as “- (0-19% control at 400 ppm)”. Further, in [4], the mortality at 200 ppm was found to be 0% and the mortality at 400 ppm amounted to 0%. Further, the “DOWN MDEW” value in experiment [5] is on record as “+++ (90-100% control at 100 ppm)”. The “APPL SCAB” value in [6] was “+ (20-89% control at 400 ppm)”. Moreover, in [7], the mortality at 200 ppm was determined as 0% and the mortality at 400 ppm was 0%. Moreover, in experiment [8], the mortality at 12 ppm was 0% and the mortality at 24 ppm was found to be 0%. The “POWD MDEW” value in experiment [9] was “+++ (90-100% control at 100 ppm)”. For the same compound, the “LEAF RUST” value in [10] was “+ (20-89% control at 400 ppm)”. Also, the “GRAY MOLD” value in experiment [11] is reported as “- (0-19% control at 400 ppm)”. In addition, in [12], the mortality at 200 ppm is 0% and the mortality at 400 ppm is 0%.
On to `COc1cc(CCNc2ccnc3cc(Cl)ccc23)cc(OC)c1` [Example 45, 7-chloro-N-[2-(3,5-dimethoxyphenyl)ethyl]-4-quinolinamine], for which, in experiment [1], the “LEAF SPOT” value is “+++ (90-100% control at 100 ppm)”. In addition, the “RICE BLAST” value in experiment [2] is given as “++ (90-100% control at 400 ppm)”. For the same compound, the “LEAF BLOT” value in experiment [3] is reported as “- (0-19% control at 400 ppm)”. The mortality at 200 ppm in experiment [4], in experiment [7] and in experiment [12] was 0% each time. The mortality at 400 ppm in experiment [4], in experiment [7] and in experiment [12] was 0% throughout. In experiment [5], the “DOWN MDEW” value was “++ (90-100% control at 400 ppm)”. In addition, the “APPL SCAB” value in experiment [6] is reported as “- (0-19% control at 400 ppm)”. For the same compound, the mortality at 12 ppm in experiment [8] is 0%. In experiment [8], the mortality at 24 ppm came to 0%. Further, the “POWD MDEW” value in experiment [9] is listed as “+ (20-89% control at 400 ppm)”. The “LEAF RUST” value in [10] is given as “+ (20-89% control at 400 ppm)”. Further, in [11], the “GRAY MOLD” value was “- (0-19% control at 400 ppm)”.
For the compound `COc1ccc(CCNc2ccnc3ccc(C)cc23)cc1` [Example 46, N-[2-(4-methoxyphenyl)ethyl]-6-methyl-4-quinolinamine], the “LEAF SPOT” value in [1] is “+++ (90-100% control at 100 ppm)”. Besides, the “RICE BLAST” value in [2] is on record as “++ (90-100% control at 400 ppm)”. Moreover, in experiment [3], the “LEAF BLOT” value is “+ (20-89% control at 400 ppm)”. Moreover, the mortality at 200 ppm in experiment [4], in [7] and in experiment [12] was 0% throughout. Also, the mortality at 400 ppm in experiment [4], in experiment [7] and in experiment [12] was 0% in each case. For the same compound, the “DOWN MDEW” value in experiment [5] is “++ (90-100% control at 400 ppm)”. The “APPL SCAB” value in [6] is listed as “+ (20-89% control at 400 ppm)”. Also, in experiment [8], the mortality at 12 ppm amounted to 0%. Moreover, the mortality at 24 ppm in experiment [8] was 0%. Besides, the “POWD MDEW” value in experiment [9] is recorded as “+ (20-89% control at 400 ppm)”. Besides, the “LEAF RUST” value in experiment [10] was “+ (20-89% control at 400 ppm)”. In experiment [11], the “GRAY MOLD” value is reported as “- (0-19% control at 400 ppm)”.
As for `COc1ccc(CCNc2ccnc3cc(C(F)(F)F)ccc23)cc1OC` [Example 48, N-[2-(3,4-dimethoxyphenyl)ethyl]-7-(trifluoromethyl)-4-quinolinamine], the “LEAF SPOT” value in experiment [1] is given as “+ (20-89% control at 400 ppm)”. In experiment [2], the “RICE BLAST” value is listed as “+ (20-89% control at 400 ppm)”. Besides, the “LEAF BLOT” value in experiment [3] was “- (0-19% control at 400 ppm)”. Further, the mortality at 200 ppm in experiment [4], in [7] and in experiment [12] was 0% each time. For the same compound, the mortality at 400 ppm in experiment [4], in [7] and in experiment [12] was 0% throughout. Moreover, in [5], the “DOWN MDEW” value is given as “++ (90-100% control at 400 ppm)”. Besides, the “APPL SCAB” value in [6] is on record as “- (0-19% control at 400 ppm)”. Further, the mortality at 12 ppm in [8] was 0%. The mortality at 24 ppm in experiment [8] stood at 0%. In experiment [9], the “POWD MDEW” value is given as “+ (20-89% control at 400 ppm)”. In addition, the “LEAF RUST” value in experiment [10] is reported as “+ (20-89% control at 400 ppm)”. Besides, the “GRAY MOLD” value in [11] is on record as “- (0-19% control at 400 ppm)”.
As for `Cc1ccc(CCNc2ccnc3cc(Cl)ccc23)cc1` [Example 50, 7-chloro-N-[2-(4-methylphenyl)ethyl]-4-quinolinamine], in [1], the “LEAF SPOT” value is “- (0-19% control at 400 ppm)”. Further, the “RICE BLAST” value in [2] is given as “- (0-19% control at 400 ppm)”. For the same compound, the “LEAF BLOT” value in experiment [3] is given as “- (0-19% control at 400 ppm)”. Also, in [4], the mortality at 200 ppm was determined as 0% and the mortality at 400 ppm was determined as 0%. For the same compound, the “DOWN MDEW” value in experiment [5] is given as “+++ (90-100% control at 100 ppm)”. In addition, the “APPL SCAB” value in experiment [6] is given as “- (0-19% control at 400 ppm)”. In [7], the mortality at 200 ppm is 0% and the mortality at 400 ppm was 0%. Moreover, in [8], the mortality at 12 ppm came to 0% and the mortality at 24 ppm was found to be 0%. Besides, the “POWD MDEW” value in experiment [9] is listed as “+++ (90-100% control at 100 ppm)”. Further, the “LEAF RUST” value in experiment [10] is “++ (90-100% control at 400 ppm)”. Also, the “GRAY MOLD” value in experiment [11] was “- (0-19% control at 400 ppm)”. In experiment [12], the mortality at 200 ppm turned out to be 0% and the mortality at 400 ppm was found to be 0%.
Regarding `Fc1ccc(CCNc2ccnc3c(Cl)cccc23)cc1` [Example 51, 8-chloro-N-[2-(4-fluorophenyl)ethyl]-4-quinolinamine], the “LEAF SPOT” value in experiment [1] is reported as “+++ (90-100% control at 100 ppm)”. Also, in experiment [2], the “RICE BLAST” value is listed as “+ (20-89% control at 400 ppm)”. For the same compound, in experiment [3], the “LEAF BLOT” value is recorded as “- (0-19% control at 400 ppm)”. In experiment [4], the mortality at 200 ppm was found to be 0% and the mortality at 400 ppm was 0%. The “DOWN MDEW” value in [5] was “+++ (90-100% control at 100 ppm)”. Further, in experiment [6], the “APPL SCAB” value is given as “- (0-19% control at 400 ppm)”. Also, in experiment [7], the mortality at 200 ppm was 0% and the mortality at 400 ppm came to 0%. Besides, in experiment [8], the mortality at 12 ppm came to 0% and the mortality at 24 ppm is 0%. Further, the “POWD MDEW” value in [9] is “- (0-19% control at 400 ppm)”. Moreover, the “LEAF RUST” value in experiment [10] is reported as “+ (20-89% control at 400 ppm)”. Moreover, in [11], the “GRAY MOLD” value is listed as “- (0-19% control at 400 ppm)”. Also, in experiment [12], the mortality at 200 ppm came to 0% and the mortality at 400 ppm was 20%.
